# Target: HSD17B13 (Homo sapiens (Human), UniProt Q7Z5P4)
# Experiment: HSD17B13 enzymatic inhibition assay (150 nM or 50 nM HSD17B13)
# Assay type: biochemical
# Settings: 50 nM HSD17B13; read-out: Inhibition of 50 nM of HSD17B13 IC50
# HSD17B13, sequence (Q7Z5P4 other isoform, or with tags, fused parts or gaps): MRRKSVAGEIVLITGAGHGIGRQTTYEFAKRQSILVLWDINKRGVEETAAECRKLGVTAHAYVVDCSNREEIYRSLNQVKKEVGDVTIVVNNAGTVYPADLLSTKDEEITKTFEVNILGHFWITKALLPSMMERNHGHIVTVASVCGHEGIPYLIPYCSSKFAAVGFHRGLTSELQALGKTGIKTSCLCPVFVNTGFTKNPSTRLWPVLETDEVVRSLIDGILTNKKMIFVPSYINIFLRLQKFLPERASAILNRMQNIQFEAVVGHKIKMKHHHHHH
row,SMILES,IC50
1,"Cc1ccc2c(c1)Sc1cc(C)ccc1C2NC(=O)c1cc(N2CCNCC2)c(C(F)(F)F)[nH]c1=O [Compound 432, N-(3,6-dimethyl-9H-thioxanthen-9-yl)-2-oxo-5-(piperazin-1-yl)-6-(trifluoromethyl)-1,2-dihydropyridine-3-carboxamide]",330 nM
2,"Cc1ccc2c(c1)Oc1cc(C)ccc1C2NC(=O)c1cc(NC2CCNCC2)c(C(F)(F)F)[nH]c1=O [Compound 433, N-(3,6-dimethyl-9H-xanthen-9-yl)-2-oxo-5-(piperidin-4-ylamino)-6-(trifluoromethyl)-1,2-dihydropyridine-3-carboxamide]",730 nM
3,"Cc1ccc2c(c1)Oc1cc(C)ccc1C2NC(=O)c1cc(N2CCNCC2)c(C(F)(F)F)[nH]c1=O [Compound 434, N-(3,6-dimethyl-9H-xanthen-9-yl)-2-oxo-5-(piperazin-1-yl)-6-(trifluoromethyl)-1,2-dihydropyridine-3-carboxamide]",110 nM
4,"Cc1ccc2c(c1)Oc1cccc(C)c1C2NC(=O)c1cc(N2CCCCC2)c(C(F)(F)F)[nH]c1=O (stereo not shown) [Compound 437, N-(1,6-dimethyl-9H-xanthen-9-yl)-2-oxo-5-(piperidin-1-yl)-6-(trifluoromethyl)-1,2-dihydropyridine-3-carboxamide]",1290 nM
5,"Cc1ccc2c(c1)Oc1cccc(C)c1C2NC(=O)c1cc(N2CCOCC2)c(C(F)(F)F)[nH]c1=O (stereo not shown) [Compound 439, N-(1,6-dimethyl-9H-xanthen-9-yl)-5-morpholino-2-oxo-6-(trifluoromethyl)-1,2-dihydropyridine-3-carboxamide]",560 nM
6,"COCCOc1ccc2c(c1)Oc1ccccc1C2NC(=O)c1ccc(C(F)(F)F)[nH]c1=O (stereo not shown) [Compound 440, N-(3-(2-methoxyethoxy)-9H-xanthen-9-yl)-2-oxo-6-(trifluoromethyl)-1,2-dihydropyridine-3-carboxamide]",700 nM
7,"Cc1ccc(C(NC(=O)c2ccc(C(F)(F)F)[nH]c2=O)c2ccccc2)c(S(C)(=O)=O)c1 (stereo not shown) [Compound 442, N-((4-methyl-2-(methylsulfonyl)phenyl)(phenyl)methyl)-2-oxo-6-(trifluoromethyl)-1,2-dihydropyridine-3-carboxamide]",2560 nM
8,"CCc1ccc(C(NC(=O)c2ccc(C(F)(F)F)[nH]c2=O)c2ccc(C)cc2)cc1 (stereo not shown) [Compound 443, N-((4-ethylphenyl)(p-tolyl)methyl)-2-oxo-6-(trifluoromethyl)-1,2-dihydropyridine-3-carboxamide]",120 nM
9,"CCc1cccc(C(NC(=O)c2ccc(C(F)(F)F)[nH]c2=O)c2ccc(C)cc2)c1 (stereo not shown) [Compound 444, N-((3-ethylphenyl)(p-tolyl)methyl)-2-oxo-6-(trifluoromethyl)-1,2-dihydropyridine-3-carboxamide]",170 nM
10,"COc1cccc(C(NC(=O)c2ccc(C(F)(F)F)[nH]c2=O)c2ccc(C)cc2)c1 (stereo not shown) [Compound 446, N-((3-methoxyphenyl)(p-tolyl)methyl)-2-oxo-6-(trifluoromethyl)-1,2-dihydropyridine-3-carboxamide]",270 nM
11,"COc1ccc(C(NC(=O)c2ccc(C(F)(F)F)[nH]c2=O)c2ccc(C)cc2)cc1 (stereo not shown) [Compound 447, N-((4-methoxyphenyl)(p-tolyl)methyl)-2-oxo-6-(trifluoromethyl)-1,2-dihydropyridine-3-carboxamide]",160 nM
12,"CSc1ccc(C(NC(=O)c2ccc(C(F)(F)F)[nH]c2=O)c2ccc(C)cc2)cc1 (stereo not shown) [Compound 448, N-((4-(methylthio)phenyl)(p-tolyl)methyl)-2-oxo-6-(trifluoromethyl)-1,2-dihydropyridine-3-carboxamide]",140 nM
13,"COc1cc(C)ccc1C(NC(=O)c1ccc(C(F)(F)F)[nH]c1=O)c1ccccc1 (stereo not shown) [Compound 449, N-((2-methoxy-4-methylphenyl)(phenyl)methyl)-2-oxo-6-(trifluoromethyl)-1,2-dihydropyridine-3-carboxamide]",970 nM
14,"Cc1ccc(C(NC(=O)c2ccc(C(F)(F)F)[nH]c2=O)c2ccccc2S(C)(=O)=O)cc1 (stereo not shown) [Compound 450, N-((2-(methylsulfonyl)phenyl)(p-tolyl)methyl)-2-oxo-6-(trifluoromethyl)-1,2-dihydropyridine-3-carboxamide]",1100 nM
15,"COc1c(C)cccc1C(NC(=O)c1ccc(C(F)(F)F)[nH]c1=O)c1ccccc1 (stereo not shown) [Compound 451, N-((2-methoxy-3-methylphenyl)(phenyl)methyl)-2-oxo-6-(trifluoromethyl)-1,2-dihydropyridine-3-carboxamide]",1960 nM
16,"Cc1cccc(C(NC(=O)c2ccc(C(F)(F)F)[nH]c2=O)c2ccccc2S(C)(=O)=O)c1 (stereo not shown) [Compound 452, N-((2-(methylsulfonyl)phenyl)(m-tolyl)methyl)-2-oxo-6-(trifluoromethyl)-1,2-dihydropyridine-3-carboxamide]",7030 nM
17,"Cc1cccc(C(NC(=O)c2ccc(C(F)(F)F)[nH]c2=O)c2ccccc2)c1S(C)(=O)=O (stereo not shown) [Compound 453, N-((3-methyl-2-(methylsulfonyl)phenyl) (phenyl)methyl)-2-oxo-6-(trifluoromethyl)-1,2-dihydropyridine-3-carboxamide]",3230 nM

row,SMILES,IC50
1,"CCc1cccc(C(NC(=O)c2ccc(C(F)(F)F)[nH]c2=O)c2ccccc2OC)c1 (stereo not shown) [Compound 454, N-((3-ethylphenyl)(2-methoxyphenyl)methyl)-2-oxo-6-(trifluoromethyl)-1,2-dihydropyridine-3-carboxamide]",1810 nM
2,"CCc1cccc(C(NC(=O)c2ccc(C(F)(F)F)[nH]c2=O)c2ccccc2SC)c1 (stereo not shown) [Compound 455, N-((3-ethylphenyl)(2-(methylthio)phenyl)methyl)-2-oxo-6-(trifluoromethyl)-1,2-dihydropyridine-3-carboxamide]",870 nM
3,"CCc1cccc(C(NC(=O)c2ccc(C(F)(F)F)[nH]c2=O)c2ccccc2S(C)(=O)=O)c1 (stereo not shown) [Compound 456, N-((3-ethylphenyl)(2-(methylsulfonyl)phenyl)methyl)-2-oxo-6-(trifluoromethyl)-1,2-dihydropyridine-3-carboxamide]",4830 nM
4,"CCCc1ccc2c(c1)C(NC(=O)c1ccc(C(F)(F)F)[nH]c1=O)c1ccccc1O2 (stereo not shown) [Compound 457, 2-oxo-N-(2-propyl-9H-xanthen-9-yl)-6-(trifluoromethyl)-1,2-dihydropyridine-3-carboxamide]",120 nM
5,"CCCc1ccc2c(c1)C(NC(=O)c1ccc(C(F)(F)F)[nH]c1=O)c1ccccc1S2 (stereo not shown) [Compound 458, 2-oxo-N-(2-propyl-9H-thioxanthen-9-yl)-6-(trifluoromethyl)-1,2-dihydropyridine-3-carboxamide]",520 nM
6,"Cc1ccc2c(c1)Oc1cc(C)ccc1C2NC(=O)c1ccc(-c2ccccc2)[nH]c1=O [Compound 459, N-(3,6-dimethyl-9H-xanthen-9-yl)-2-oxo-6-phenyl-1,2-dihydropyridine-3-carboxamide]",> 10000 nM
7,"Cc1ccc2c(c1)S(=O)(=O)c1cc(C)ccc1C2NC(=O)c1cc(CO)c(C(F)(F)F)[nH]c1=O [Compound 462, N-(3,6-dimethyl-10,10-dioxido-9H-thioxanthen-9-yl)-5-(hydroxymethyl)-2-oxo-6-(trifluoromethyl)-1,2-dihydropyridine-3-carboxamide]",140 nM
8,"Cc1ccc2c(c1)Sc1cc(C)ccc1C2NC(=O)c1cc(CO)c(C(F)(F)F)[nH]c1=O [Compound 463, N-(3,6-dimethyl-9H-thioxanthen-9-yl)-5-(hydroxymethyl)-2-oxo-6-(trifluoromethyl)-1,2-dihydropyridine-3-carboxamide]",50 nM
9,"Cc1ccc2c(c1)Oc1cc(C)ccc1C2NC(=O)c1cc(CO)c(C(F)(F)F)[nH]c1=O [Compound 464, N-(3,6-dimethyl-9H-xanthen-9-yl)-5-(hydroxymethyl)-2-oxo-6-(trifluoromethyl)-1,2-dihydropyridine-3-carboxamide]",10 nM
10,"CCCc1cccc(C(NC(=O)c2ccc(C(F)(F)F)[nH]c2=O)c2ccccc2)c1 (stereo not shown) [Compound 465, 2-oxo-N-(phenyl(3-propylphenyl)methyl)-6-(trifluoromethyl)-1,2-dihydropyridine-3-carboxamide]",610 nM
11,"CCc1cccc(C(NC(=O)c2ccc(C(F)(F)F)[nH]c2=O)c2ccccc2)c1 (stereo not shown) [Compound 466, N-((3-ethylphenyl)(phenyl)methyl)-2-oxo-6-(trifluoromethyl)-1,2-dihydropyridine-3-carboxamide]",600 nM
12,"C=Cc1cccc(C(NC(=O)c2ccc(C(F)(F)F)[nH]c2=O)c2ccccc2)c1 (stereo not shown) [Compound 467, 2-oxo-N-(phenyl(3-vinylphenyl)methyl)-6-(trifluoromethyl)-1,2-dihydropyridine-3-carboxamide]",990 nM
13,"CCc1ccc2c(c1)C(NC(=O)c1ccc(C(F)(F)F)[nH]c1=O)c1ccccc1S2(=O)=O (stereo not shown) [Compound 468, N-(2-ethyl-10,10-dioxido-9H-thioxanthen-9-yl)-2-oxo-6-(trifluoromethyl)-1,2-dihydropyridine-3-carboxamide]",190 nM
14,"CCCc1ccc2c(c1)C(NC(=O)c1ccc(C(F)(F)F)[nH]c1=O)c1ccccc1S2(=O)=O (stereo not shown) [Compound 469, N-(10,10-dioxido-2-propyl-9H-thioxanthen-9-yl)-2-oxo-6-(trifluoromethyl)-1,2-dihydropyridine-3-carboxamide]",310 nM
15,"Cc1ccc2c(c1)C(NC(=O)c1ccc(C(F)(F)F)[nH]c1=O)c1ccccc1S2(=O)=O (stereo not shown) [Compound 470, N-(2-methyl-10,10-dioxido-9H-thioxanthen-9-yl)-2-oxo-6-(trifluoromethyl)-1,2-dihydropyridine-3-carboxamide]",420 nM
16,"C=CCc1ccc2c(c1)C(NC(=O)c1ccc(C(F)(F)F)[nH]c1=O)c1ccccc1O2 (stereo not shown) [Compound 471, N-(2-allyl-9H-xanthen-9-yl)-2-oxo-6-(trifluoromethyl)-1,2-dihydropyridine-3-carboxamide]",280 nM
17,"O=C(NC1c2ccccc2S(=O)(=O)c2ccc(CC(F)(F)F)cc21)c1ccc(C(F)(F)F)[nH]c1=O (stereo not shown) [Compound 472, N-(10,10-dioxido-2-(2,2,2-trifluoroethyl)-9H-thioxanthen-9-yl)-2-oxo-6-(trifluoromethyl)-1,2-dihydropyridine-3-carboxamide]",480 nM
